Laboratory results reported in publication PMC9911797, “Novel TLR7/8 agonists promote activation of HIV-1 latent reservoirs and human T and NK cells” (Frontiers in Microbiology, 2023).

Experiments:
[1] = molecular target: T1, hTLR8 (Homo sapiens, UniProt Q9NR97); assay: HEK-Blue hTLR8 SEAP reporter assay; assay type: cell-based; conditions: HEK-Blue hTLR8 cells, SEAP in supernatant
T1 construct: host or cells: HEK-Blue hTLR8 (HEK293-derived)
T1 sequence (Q9NR97 27-1041): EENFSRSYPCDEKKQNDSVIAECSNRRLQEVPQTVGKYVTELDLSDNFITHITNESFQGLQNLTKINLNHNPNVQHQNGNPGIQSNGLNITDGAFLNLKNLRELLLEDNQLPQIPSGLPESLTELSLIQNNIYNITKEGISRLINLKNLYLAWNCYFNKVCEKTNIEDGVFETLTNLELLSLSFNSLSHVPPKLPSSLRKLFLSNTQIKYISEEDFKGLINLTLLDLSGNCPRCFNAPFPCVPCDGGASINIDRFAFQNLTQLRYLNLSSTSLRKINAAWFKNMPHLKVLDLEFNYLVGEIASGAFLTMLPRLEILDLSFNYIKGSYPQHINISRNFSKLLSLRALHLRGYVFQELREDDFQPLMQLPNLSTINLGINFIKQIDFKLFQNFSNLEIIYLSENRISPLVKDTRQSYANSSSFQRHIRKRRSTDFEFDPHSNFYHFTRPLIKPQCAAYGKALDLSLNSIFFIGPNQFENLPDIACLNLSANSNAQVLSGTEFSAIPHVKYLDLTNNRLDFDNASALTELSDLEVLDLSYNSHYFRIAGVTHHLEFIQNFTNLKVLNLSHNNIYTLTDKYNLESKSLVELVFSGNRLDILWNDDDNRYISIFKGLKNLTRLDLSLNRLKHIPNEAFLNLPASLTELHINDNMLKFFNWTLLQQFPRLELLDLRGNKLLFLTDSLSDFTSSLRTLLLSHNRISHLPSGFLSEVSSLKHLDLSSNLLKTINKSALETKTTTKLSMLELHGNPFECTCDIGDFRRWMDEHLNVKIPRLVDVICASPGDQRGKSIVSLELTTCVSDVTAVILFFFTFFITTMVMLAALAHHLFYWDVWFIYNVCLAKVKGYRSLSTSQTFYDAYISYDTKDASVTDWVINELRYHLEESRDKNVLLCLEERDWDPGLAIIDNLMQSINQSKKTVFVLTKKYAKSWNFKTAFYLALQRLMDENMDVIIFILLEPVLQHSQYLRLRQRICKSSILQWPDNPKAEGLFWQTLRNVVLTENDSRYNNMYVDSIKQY
Description: Starting with the lead compound, 76 pyrido [3,2-d] pyrimidine derivatives were synthesized and optimized through structural modification from the deep hydrophobic region to the solvent-exposed region. Seventy-six compounds were evaluated for their in vitro activity using HEK-Blue hTLR7 or hTLR8 reporter cells, stably expressing the human TLR7 or TLR8 and an NF-κB/AP1-inducible SEAP (secreted embryonic alkaline phosphatase reporter gene).
Add 20 μl various concentrations of TLR agonists (10 dilutions) and in a 96-well plate. Then HEK-Blue hTLR7 and hTLR8 cells were suspended to 4 × 10^5 cells/ml in HEK-Blue Detection (InvivoGen) medium and added 180 μl per well. The plates were incubated at 37°C in 5% CO2 for 12 ~ 16 h. Stimulation with a hTLR7or hTLR8 ligand activates NF-κB to induce the production of secreted embryonic alkaline phosphatase (SEAP) in the culture supernatant. SEAP could be measured at OD630nm on an ELISA plate reader.

[2] = tested on: PBMCs; assay: Inflammatory cytokine release from PBMCs (Legend-plex); assay type: cell-based, human; conditions: PBMC culture supernatant 48 h after stimulation
Description: Then, a total of 13 human inflammatory cytokines and chemokines (IL-1β, IFN-α2, IFN-γ, TNF-α, CCL2, IL-6, CXCL8, IL-10, IL-12p70, IL-17A, IL-18, IL-23, and IL-33) were measured in the culture supernatant 48 h after stimulation and compared with two healthy donors. Only 8 out of 13 became detectable and largely fell into the proinflammatory cytokines (IL-1β, IL-6, IL-18, IL-23, and TNF-α), Th1-and Th2-type cytokines (IL-10 and IFN-γ), and type I (IFN-α2) and type II (IFN-γ) interferons (Figures 2B–I).
The supernatants from PBMCs culture were collected and stored at-20°C until analysis. For the Multi-cytokines assay, the Legend-plex Human Inflammation Panel 1 kit (Biolegend) was used according to the manual. Thirteen human inflammatory cytokines/chemokines were measured, including IL-1β, IFN-α2, IFN-γ, TNF-α, MCP-1 (CCL2), IL-6, IL-8 (CXCL8), IL-10, IL-12p70, IL-17A, IL-18, IL-23, and IL-33.

[3] = tested on: J-LAT CD4 T cell line (latent HIV-1); assay: J-LAT activation by supernatant of agonist-stimulated healthy donor PBMCs (GFP+ cells, FACS); conditions: 48 h, highest concentration 16 μM

CCCCNc1nc(N)nc2ccc(Cc3ccc(CN(C)C)cc3)nc12 [D018]
EC50 [1]: 6.46 nM | release of inflammatory cytokines [2]: either equivalent (IL-6, IL-10, IL-23, and IFN-γ) or higher (IL-1β, IL-18, and TNF-α) than the commercially available R848 | GFP-positive J-LAT cells, PBMC supernatant [3]: most potent
